Laboratory results as given in patent US20070213359A1 (ACADIA Pharmaceuticals Inc., priority 2005, published 2007).
pIC50, pKi: −log10 of the molar value. Read-outs that look alike come from different tables or passages of the source.

Key:
Ghrelin receptor [1] = biological target: T1, Ghrelin receptor (Homo sapiens, UniProt Q92847); assay: Aeg; assay type: cell-based
Target sequence in this assay (Q92847 whole entry): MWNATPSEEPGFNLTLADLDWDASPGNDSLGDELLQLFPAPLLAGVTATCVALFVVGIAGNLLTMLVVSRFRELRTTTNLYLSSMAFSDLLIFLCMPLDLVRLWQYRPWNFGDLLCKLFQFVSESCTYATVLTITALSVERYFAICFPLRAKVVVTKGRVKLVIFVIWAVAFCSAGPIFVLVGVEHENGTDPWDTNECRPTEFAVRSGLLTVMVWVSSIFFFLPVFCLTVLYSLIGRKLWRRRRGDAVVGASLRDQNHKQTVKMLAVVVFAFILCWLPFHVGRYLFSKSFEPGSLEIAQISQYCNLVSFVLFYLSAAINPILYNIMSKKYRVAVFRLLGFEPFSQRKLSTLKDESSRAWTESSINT

Ghrelin receptor [2] = biological target: T1, Ghrelin receptor; assay: Receptor Selection and Amplification Technology (R-SAT) assay; assay type: cell-based; set-up: expressed in transfected cells; host or cells: NIH3T3; conditions: for IC50: '—' not defined (nd used separately), read-out: RSAT pIC50 (converted); for Emax: read-out: RSAT Eff(%)
Target sequence in this assay (Q92847 whole entry): as above

GHSR1a receptor = biological target: T2, GHSR1a receptor (Homo sapiens, UniProt Q92847); assay: 125I-Ghrelin binding assay; conditions: displacement of 125I-ghrelin (0.053 nM), membranes of HEK293 cells transfected with GHSR1a, Cheng-Prussoff, '—' not defined; for pKi: Binding pKi; for Ki: read-out: Binding pKi (converted)
T2 construct: expressed in transfected cells; host or cells: HEK293 (membranes)

[3] = test system: fasted, male Sprague-Dawley rats; assay: Suppression of acute feeding response in fasted rats; assay type: in vivo, rat; conditions: intraperitoneal, 30 mg/kg
Ghrelin receptor [4] = biological target: T1, Ghrelin receptor; assay: pIC50; set-up: expressed in transfected cells; host or cells: NIH3T3
Excerpt: Table printed on a drawing sheet, Figure 1
First copying reader's note: The table stands under a dose-response plot; chemical names broken over two lines at a hyphen are joined by a blank.
Target sequence in this assay (Q92847 whole entry, looked up): as the sequence (Q92847 whole entry) above

[5] = negative logarithm of ligand concentration causing 50% inhibition of constitutive receptor response, transfected NIH3T3 cells
[6] = percent inhibition at saturating ligand, normalized to reference ligand Substance P analog = 100%

T2 sequence (Q92847 whole entry): as above

COc1cccc2c(C(=O)c3ccccc3)cn(CCCN3CCC(c4nc5ccccc5s4)CC3)c12
pIC50 (Ghrelin receptor [1]): 7.20
IC50 (Ghrelin receptor [2]; […]): 0.2 nM
Emax (Ghrelin receptor [2]): 107%
pKi (GHSR1a receptor): 7.40

COc1cccc2c(C(=O)Cc3ccccc3)cn(CCCN3C4CCC3CC(CCc3ccccc3)C4)c12 (stereo not drawn)
IC50 (Ghrelin receptor [2]; […]): 0.251 nM
Emax (Ghrelin receptor [2]): 141%
Ki (GHSR1a receptor): 10 nM

COc1cccc2c(C(=O)C3CC3)cn(CCCN3CCC(Oc4ccc(F)cc4)CC3)c12
pIC50 (Ghrelin receptor [1]): 7.40
IC50 (Ghrelin receptor [2]; […]): 0.398 nM
Emax (Ghrelin receptor [2]): 101%
pKi (GHSR1a receptor): 7.30

COc1cccc2c(C#N)cn(CCCN3C4CCC3CC(Oc3ccc(F)cc3)C4)c12 (stereo not drawn)
IC50 (Ghrelin receptor [2]; [5]): 15800 nM
Emax (Ghrelin receptor [2]; [6]): 107%
Ki (GHSR1a receptor): 200 nM

COc1cccc2c(C#N)cn(CCCN3C4CCC3CC(CC(=O)c3ccc(Cl)cc3)C4)c12 (stereo not drawn)
Emax (Ghrelin receptor [2]; [6]): 12%
Ki (GHSR1a receptor): 79.4 nM

CC(=O)c1c(C)n(CCCN2C3CCC2CC(Oc2ccccc2Cl)C3)c2c(Br)cccc12 (stereo not drawn)
Emax (Ghrelin receptor [2]; [6]): 37%
Ki (GHSR1a receptor): 100 nM

COc1cccc2c(C#N)cn(CCCN3CCCC(Cc4ccccc4Cl)C3)c12 (stereo not drawn)
Emax (Ghrelin receptor [2]; [6]): 62%
Ki (GHSR1a receptor): 200 nM

O=C(c1cn(CCCN2C3CCC2CC(Oc2ccccc2Cl)C3)c2ncccc12)C(F)(F)F (stereo not drawn)
Emax (Ghrelin receptor [2]; [6]): 23%
Ki (GHSR1a receptor): 251 nM

CC(=O)c1c(C)n(CCCN2CCCN(Cc3ccccc3Cl)CC2)c2c(Br)cccc12
Emax (Ghrelin receptor [2]; [6]): -14%
Ki (GHSR1a receptor): 398 nM

COc1cccc2c(C(C)=O)cn(CC(C)CN3C4CCC3CC(CC(=O)c3ccc(Cl)cc3)C4)c12 (stereo not drawn)
Emax (Ghrelin receptor [2]): 16%
Ki (GHSR1a receptor): 398 nM

CCc1cccc2c(C(C)=O)cn(CCCN3CCC(CCOc4ccc(Cl)cc4)CC3)c12
Emax (Ghrelin receptor [2]; [6]): 76%
Ki (GHSR1a receptor): 501 nM

O=C(CC1CC2CCC(C1)N2CCCn1cc(C(=O)C(F)(F)F)c2cccnc21)c1ccc(Cl)cc1 (stereo not drawn)
Emax (Ghrelin receptor [2]; [6]): 10%
Ki (GHSR1a receptor): 631 nM

CCCCC1CCN(CCCn2cc(C(C)=O)c3ccccc32)CC1 [1-(1-(3-(4-butylpiperidin-1-yl)propyl)-1H-indol-3-yl)ethanone]
suppression of feeding [3]: Robust suppression of feeding
pIC50 (Ghrelin receptor [4]): 6.80

COc1cccc2c(C(=O)NCC(C)C)cn(CCCN3CCC(c4nc5ccccc5s4)CC3)c12 [drawing 234]
IC50 (Ghrelin receptor [2]; […]): 1.58 nM
Emax (Ghrelin receptor [2]): 106%
pKi (GHSR1a receptor): 6.00

CC(=O)c1cn(CCCN2C3CCC2CC(CCc2ccccc2)C3)c2ccccc12 (stereo not drawn) [drawing 267]
IC50 (Ghrelin receptor [2]; [5]): 5.01 nM
Emax (Ghrelin receptor [2]; [6]): 105%
Ki (GHSR1a receptor): 316 nM

COc1cccc2c(C(C)=O)cn(CCCN3CCC(Oc4ccc(Cl)cc4)CC3)c12 [drawing 276]
IC50 (Ghrelin receptor [2]; […]): 5.01 nM
Emax (Ghrelin receptor [2]): 144%
Ki (GHSR1a receptor): 200 nM

COc1cccc2c(C(C)=O)cn(CCCN3CCC(c4nc5ccccc5s4)CC3)c12 [drawing 280]
IC50 (Ghrelin receptor [2]; [5]): 6.31 nM
RSAT Eff(%) (Ghrelin receptor [2]; [6]): 128%
Ki (GHSR1a receptor): 398 nM

COc1cccc2c(C(C)=O)cn(CCCN3CCC(Oc4ccc(Cl)cc4)CC3)c12 [drawing 300]
IC50 (Ghrelin receptor [2]; [5]): 7.94 nM
RSAT Eff(%) (Ghrelin receptor [2]; [6]): 129%
Ki (GHSR1a receptor): 126 nM

COc1cccc2c(C(C)=O)cn(CCCN3CCC(c4nc5ccccc5s4)CC3)c12 [drawing 310]
IC50 (Ghrelin receptor [2]; […]): 10 nM
Emax (Ghrelin receptor [2]): 102%
Ki (GHSR1a receptor): 158 nM

CCCOC1CCN(CCCn2cc(C(C)=O)c3cccc(OC)c32)CC1 [drawing 333]
IC50 (Ghrelin receptor [2]; [5]): 15.8 nM
Emax (Ghrelin receptor [2]; [6]): 112%
Ki (GHSR1a receptor): 2000 nM

CC(=O)c1cn(CCCN2C3CCC2CC(CCc2ccccc2)C3)c2ccccc12 (stereo not drawn) [drawing 433]
IC50 (Ghrelin receptor [2]; [5]): 63.1 nM
RSAT Eff(%) (Ghrelin receptor [2]; [6]): 96%
Ki (GHSR1a receptor): 1580 nM

CC(=O)c1cn(CCCN2CCC(Oc3ccc(F)cc3)CC2)c2ccccc12 [drawing 551]
IC50 (Ghrelin receptor [2]; [5]): 398 nM
RSAT Eff(%) (Ghrelin receptor [2]; [6]): 96%
Ki (GHSR1a receptor): 2000 nM

COc1ccccc1C1CCN(CCCn2cc(C(C)=O)c3ccccc32)CC1 [drawing 576]
IC50 (Ghrelin receptor [2]; [5]): 501 nM
RSAT Eff(%) (Ghrelin receptor [2]; [6]): 106%
Ki (GHSR1a receptor): 1260 nM

CCCCC1CCN(CCCn2cc(C(C)=O)c3ccccc32)CC1 [drawing 584]
IC50 (Ghrelin receptor [2]; […]): 631 nM
Emax (Ghrelin receptor [2]): 77%
pKi (GHSR1a receptor): 5.40

CC(=O)c1cn(CCCN2CCC(Oc3ccccc3Cl)CC2)c2ccccc12 [drawing 599]
RSAT Eff(%) (Ghrelin receptor [2]; [6]): 116%
Ki (GHSR1a receptor): 2510 nM

O=C(NCc1cccc(Cl)c1)c1cn(CCCN2CCC(Oc3ccc(F)cc3)CC2)c2ccccc12 [drawing 659]
RSAT Eff(%) (Ghrelin receptor [2]): 67%
Ki (GHSR1a receptor): 1580 nM
